This assay addresses T1, KRAS G12C 1-169, his-tagged protein, GDP-loaded (Homo sapiens, UniProt P01116, G12C).
T1 construct: KRAS G12C 1-169, his-tagged protein, GDP-loaded
As to the kind of experiment: Biochemical assay: covalent modification of KRAS G12C measured by mass spectrometry (RapidFire/TOF or Q-Exactive). As to conditions: covalent binding to KRAS G12C. A digest of the protocol:
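GDP-loaded his-tagged KRAS G12C 1-169 at 2 μM in 20 mM Hepes, 150 mM NaCl, 1 mM MgCl2 incubated at room temperature with compound (10, 30 or 100 μM final, 2% DMSO) for 30 min, 2 h or 24 h, then quenched with formic acid. Intact-protein LC-MS (RapidFire/TOF or Q-Exactive) with deconvolution quantified modified versus unmodified protein.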

Turning to `C=CC(=O)N1CCN(c2nc(NCC3CCN(C4CC4)CC3)nc3c(F)c(-c4c(O)cccc4F)c(Cl)cc23)CC1` [Example I-150, 1-(4-(6-chloro-2-((1-cyclopropyl-piperidin-4-yl)methylamino)-8-fluoro-7-(2-fluoro-6-hydroxyphenyl)quinazolin-4-yl)piperazin-1-yl) prop-2-en-1-one], the Binding % result (compounds of structure (I)) was “+++ (+++ indicates binding activity greater than 90%)”.
For the compound `C=CC(=O)N1CCN(c2nc(NC3CCN(C(C)(C)C)CC3)nc3c(F)c(-c4c(C)ccc5[nH]ncc45)c(Cl)cc23)CC1` [Example I-177, 1-(4-(2-((1-(tert-butyl)piperidin-4-yl)amino)-6-chloro-8-fluoro-7-(5-methyl-1H-indazol-4-yl)quinazolin-4-yl)piperazin-1-yl) prop-2-en-1-one], for the setting “compounds of structure (I)”, the Binding % result is listed as “+++ (+++ indicates binding activity greater than 90%)”.
As for `C=CC(=O)N1CCN(c2nc(OCC(F)(F)c3ccccn3)nc3c(F)c(-c4c(C)ccc5[nH]ncc45)c(Cl)cc23)CC1` [Example I-123, 1-(4-(6-chloro-2-(2,2-difluoro-2-(pyridin-2-yl)ethoxy)-8-fluoro-7-(5-methyl-1H-indazol-4-yl)quinazolin-4-yl)piperazin-1-yl) prop-2-en-1-one], the Binding % result (compounds of structure (I)) is given as “+++ (+++ indicates binding activity greater than 90%)”.
In the case of `C=CC(=O)N1CCN(c2nc(OC3CCN(CC(F)(F)F)CC3)nc3c(F)c(-c4c(O)cccc4F)c(Cl)cc23)CC1` [Example I-27, 1-(4-(6-chloro-8-fluoro-7-(2-fluoro-6-hydroxyphenyl)-2-(1-(2,2,2-trifluoroethyl)piperidin-4-yloxy)quinazolin-4-yl)piperazin-1-yl)prop-2-en-1-one], under “compounds of structure (I)”, the Binding % entry is on record as “+++ (+++ indicates binding activity greater than 90%)”.
On the same count and under the same terms, next, `C=CC(=O)N1CCN(c2nc(N3CC(N(C)C)C3)nc3c(F)c(-c4c(O)cccc4F)c(Cl)cc23)CC1` (atropisomer, axis not shown) [Example I-116, (S)-1-(4-(6-chloro-2-(3-(dimethylamino)azetidin-1-yl)-8-fluoro-7-(2-fluoro-6-hydroxyphenyl)quinazolin-4-yl)piperazin-1-yl) prop-2-en-1-one]: “+++ (+++ indicates binding activity greater than 90%)”.
With `C=CC(=O)N1CCN(c2ncnc3c(F)c(-c4c(O)cccc4F)c(Cl)cc23)CC1C` (centres unmarked) [III-5, 1-(4-(6-chloro-8-fluoro-7-(2-fluoro-6-hydroxy-phenyl)quinazolin-4-yl)-2-methyl-piperazin-1-yl)prop-2-en-1-one], the Binding % entry (compounds of structure (III)) was “++ (++ indicates activity from 50% to 90%)”.
For the compound `C=CC(=O)N1CCN(c2nc(NCCc3ccccn3)nc3c(F)c(-c4c(C)ccc5[nH]ncc45)c(Cl)cc23)CC1` [Example I-142, 1-(4-(6-chloro-8-fluoro-7-(5-methyl-1H-indazol-4-yl)-2-(2-(pyridin-2-yl)ethylamino)quinazolin-4-yl)piperazin-1-yl) prop-2-en-1-one], for the setting “compounds of structure (I)”, the Binding % entry is recorded as “+++ (+++ indicates binding activity greater than 90%)”.
For the compound `C=CC(=O)N1CCN(c2nc(OCCN3CC(F)(F)C3)nc3c(F)c(-c4c(C)ccc5[nH]ncc45)c(Cl)cc23)CC1` [Example I-145, 1-(4-(6-chloro-2-(2-(3,3-difluoro-azetidin-1-yl)ethoxy)-8-fluoro-7-(5-methyl-1H-indazol-4-yl)quinazolin-4-yl)piperazin-1-yl) prop-2-en-1-one], the Binding % entry (compounds of structure (I)) is on record as “+++ (+++ indicates binding activity greater than 90%)”.
Take `C=CC(=O)N1CCN(c2nc(C(F)(F)F)nc3c(F)c(-c4c(O)cccc4F)c(Cl)cc23)CC1` [Example I-204, 1-(4-(6-chloro-8-fluoro-7-(2-fluoro-6-hydroxyphenyl)-2-(trifluoro-methyl)quinazolin-4-yl)piperazin-1-yl) prop-2-en-1-one]: under “compounds of structure (I)”, the Binding % result is “++ (++ indicates binding activity from 50 to 90%)”.
On the same count and under the same terms, the result for `C=CC(=O)N1CCN(c2nc(N3CC(N4CC(F)(F)C4)C3)nc3c(F)c(-c4c(O)cccc4F)c(Cl)cc23)CC1` [Example I-179, 1-(4-(6-chloro-2-(3,3-difluoro-[1,3′-biazetidin]-1′-yl)-8-fluoro-7-(2-fluoro-6-hydroxyphenyl)quinazolin-4-yl)piperazin-1-yl) prop-2-en-1-one] reads “+ (+ indicates binding activity up to 50%)”; that for `C=CC(=O)N1CCN(c2nc(OCc3ccc(C)nc3)nc3c(F)c(-c4c(O)cccc4F)c(Cl)cc23)CC1` [Example I-104, 1-(4-(6-chloro-8-fluoro-7-(2-fluoro-6-hydroxyphenyl)-2-((6-methyl-pyridin-3-yl)methoxy)quinazolin-4-yl)piperazin-1-yl) prop-2-en-1-one], “+ (+ indicates binding activity up to 50%)”.
Consider `C=CC(=O)N1CCN(c2ncnc3c(F)c(-c4c(F)cccc4OCc4cnc([N+](=O)[O-])n4C)c(Cl)cc23)CC1` [II-10, 1-(4-(6-chloro-8-fluoro-7-(2-fluoro-6-((1-methyl-2-nitro-1H-imidazol-5-yl)methoxy)phenyl)quinazolin-4-yl)piperazin-1-yl)prop-2-en-1-one], for which, where the note is “compounds of structure (II)”, the Binding % result was “+++ (+++ indicates binding activity of 75% or greater)”.
Consider `C=CC(=O)N1CCN(c2nc(OCCN3CCN(C4CC4)CC3)nc3c(F)c(-c4c(O)cccc4F)c(Cl)cc23)CC1` [Example I-168, 1-(4-(6-chloro-2-(2-(4-cyclopropyl-piperazin-1-yl)ethoxy)-8-fluoro-7-(2-fluoro-6-hydroxyphenyl)quinazolin-4-yl)piperazin-1-yl) prop-2-en-1-one], for which the Binding % result (compounds of structure (I)) was “+++ (+++ indicates binding activity greater than 90%)”.
Consider `C=CC(=O)N1CCN(c2ncnc3c(F)c(-c4c(O)cccc4F)c(Cl)cc23)CC1C(F)(F)F` (centres unmarked) [III-11, 1-(4-(6-chloro-8-fluoro-7-(2-fluoro-6-hydroxy-phenyl)quinazolin-4-yl)-2-(trifluoro-methyl)piperazin-1-yl)prop-2-en-1-one], for which the Binding % result (compounds of structure (III)) is reported as “+++ (+++ indicates binding activity greater than 90%)”.
As for `C=CC(=O)N1CCN(c2nc(OCCN(CC)CC)nc3c(F)c(-c4c(C)ccc5[nH]ncc45)c(Cl)cc23)CC1` [Example I-130, 1-(4-(6-chloro-2-(2-(diethyl-amino)ethoxy)-8-fluoro-7-(5-methyl-1H-indazol-4-yl)quinazolin-4-yl)piperazin-1-yl) prop-2-en-1-one], the Binding % entry (compounds of structure (I)) is on record as “+++ (+++ indicates binding activity greater than 90%)”.
Consider `C=CC(=O)N1CCN(c2nc(CNc3ccccn3)nc3c(F)c(-c4c(O)cccc4F)c(Cl)cc23)CC1` [Example I-199, 1-(4-(6-chloro-8-fluoro-7-(2-fluoro-6-hydroxyphenyl)-2-((pyridin-2-ylamino)methyl)quinazolin-4-yl)piperazin-1-yl) prop-2-en-1-one], for which the Binding % entry (compounds of structure (I)) is “+++ (+++ indicates binding activity greater than 90%)”.
With `C=CC(=O)Nc1ncc(-c2ncnc3c(F)c(-c4c(O)cccc4F)c(Cl)cc23)s1` [II-13, N-(5-(6-chloro-8-fluoro-7-(2-fluoro-6-hydroxyphenyl)quinazolin-4-yl)thiazol-2-yl)acrylamide], the Binding % result (compounds of structure (II)) was “++ (++ indicates binding activity greater than 50% and less than 75%)”.
On to `C=CC(=O)N1CCN(c2c(C#N)c(NC3CCN(C4CC4)CC3)nc3c(F)c(-c4c(C)ccc5[nH]ncc45)c(Cl)cc23)CC1` [Example I-202, 4-(4-acryloyl-piperazin-1-yl)-6-chloro-2-((1-cyclopropyl-piperidin-4-yl)amino)-8-fluoro-7-(5-methyl-1H-indazol-4-yl) quinoline-3-carbonitrile], for which the Binding % entry (compounds of structure (I)) is on record as “++ (++ indicates binding activity from 50 to 90%)”.
In the case of `C=CC(=O)N1CCN(c2nc(OCCN3CCOCC3)nc3c(F)c(-c4cc(O)cc5ccccc45)c(Cl)cc23)CC1` (atropisomer, axis not shown) [Example I-51, (S)-1-(4-(6-chloro-8-fluoro-7-(3-hydroxy-naphthalen-1-yl)-2-(2-morpholino-ethoxy)quinazolin-4-yl)piperazin-1-yl)prop-2-en-1-one], where the note is “compounds of structure (I)”, the Binding % result is on record as “+++ (+++ indicates binding activity greater than 90%)”.
Consider `C=CC(=O)N1CCN(c2nc(OCCN3CCOCC3)nc3c(F)c(-c4c(O)ccc(F)c4F)c(Cl)cc23)CC1` [Example I-91, 1-(4-(6-chloro-7-(2,3-difluoro-6-hydroxyphenyl)-8-fluoro-2-(2-morpholino-ethoxy)quinazolin-4-yl)piperazin-1-yl)prop-2-en-1-one], for which the Binding % result (compounds of structure (I)) was “+++ (+++ indicates binding activity greater than 90%)”.
As for `C=CC(=O)N1CCN(c2ncnc3c(F)c(-c4c(O)cccc4F)c(Cl)cc23)[C@@H](C(C)C)C1` [III-34, 1-((3S)-4-(6-chloro-8-fluoro-7-(2-fluoro-6-hydroxy-phenyl)quinazolin-4-yl)-3-isopropyl-piperazin-1-yl)prop-2-en-1-one], the Binding % entry (compounds of structure (III)) is reported as “+ (+ indicates binding activity up to 50%)”.
Turning to `C=CC(=O)N1CCN(c2nc(NC3CCN(c4ncccn4)CC3)nc3c(F)c(-c4c(O)cccc4F)c(Cl)cc23)CC1` [Example I-190, 1-(4-(6-chloro-8-fluoro-7-(2-fluoro-6-hydroxyphenyl)-2-((1-(pyrimidin-2-yl)piperidin-4-yl)amino)quinazolin-4-yl)piperazin-1-yl) prop-2-en-1-one], the Binding % entry (compounds of structure (I)) was “+ (+ indicates binding activity up to 50%)”.
As for `C=C(F)C(=O)N1CCN(c2nc(OCCN3CCOCC3)nc3c(F)c(-c4c(O)cccc4F)c(Cl)cc23)CC1` [Example I-60, 1-(4-(6-chloro-8-fluoro-7-(2-fluoro-6-hydroxyphenyl)-2-(2-morpholino-ethoxy)quinazolin-4-yl)piperazin-1-yl)-2-fluoroprop-2-en-1-one], for the setting “compounds of structure (I)”, the Binding % result is given as “++ (++ indicates binding activity from 50 to 90%)”.

Source of the values: US10829458B2 (Araxes Pharma LLC, priority 2015, dated 2020).
